Experimental findings from ChEMBL document CHEMBL1153235, “Synthesis and antiproliferating activity of iron chelators of hydroxyamino-1,3,5-triazine family” (Bioorg Med Chem Lett, 2010) are described below.

For one test, the system named is MDA-MB-231 (human). In words: Cytotoxicity against human MDA-MB-231 cells after 96 hrs by MTT assay. The conditions noted are these: MDA-MB-231, 96 h. Background: Tetrazolium dyes change colour on reduction, which living cells bring about.
Test [1] can be described thus: Cytotoxicity against human foreskin fibroblasts after 96 hrs by MTT assay. The conditions noted are these: Fibroblast. The class given is cell-based.
Another test deals with MIA PaCa-2 (human). In words: Cytotoxicity against human MIAPaCa2 cells after 96 hrs by MTT assay. The note with it: MIA PaCa-2, 96 h.

Usually IC50 stands for the concentration needed to halve the response being measured. Higher therefore signals a need for much substance.

Consider `CCCCNc1nc(NN)nc(N(C)O)n1`, for which the half-inhibitory concentration (IC50) in the test with MDA-MB-231 (human) is 75 µM; in test [1] it was 300 µM; with MIA PaCa-2 (human) it was 50 µM.

Regarding `O=C(O)c1ccc(-n2nc(-c3ccccc3O)nc2-c2ccccc2O)cc1` [DEFERASIROX], the values for the IC50 (with MDA-MB-231 (human); in test [1]; with MIA PaCa-2 (human)) were 10 µM, 100 µM and 4 µM, respectively.

As for `CN(O)c1nc(NN)nc(N2CCOCC2)n1`, the values for the IC50 (with MDA-MB-231 (human); in test [1]; with MIA PaCa-2 (human)) were 150 µM, 400 µM and 150 µM, respectively.

Regarding `CCCCNc1nc(N(C)O)nc(N(C)O)n1`, the concentration for half-maximal inhibition (IC50) with MDA-MB-231 (human) came out at 4 µM; in test [1], 16.5 µM; with MIA PaCa-2 (human), 0.8 µM.

As for `CCOC(=O)CN(C)c1nc(N(C)O)nc(N(C)O)n1`, the IC50 is 20 µM in the test on MDA-MB-231 (human), 200 µM in test [1] and 4 µM with MIA PaCa-2 (human).

Consider `CN(O)c1nc(N2CCOCC2)nc(N2CCC=N2)n1`, for which the IC50 in the test on MDA-MB-231 (human) worked out at 75 µM; in test [1], 250 µM; with MIA PaCa-2 (human) it was 50 µM.

Consider `CON(C)c1nc(N(C)O)nc(N2CCOCC2)n1`, for which the IC50 in the test with MDA-MB-231 (human) stood at 150 µM; in test [1], 250 µM; in the test with MIA PaCa-2 (human), 40 µM.

For `ONc1nc(NO)nc(N2CCOCC2)n1`, the IC50 amounted to 250 µM in the test on MDA-MB-231 (human), 350 µM in test [1] and 40 µM in the test on MIA PaCa-2 (human).

Consider `CN(O)c1nc(N(C)O)nc(N2CCOCC2)n1`, for which the IC50 was 9 µM in the test on MDA-MB-231 (human), 200 µM in test [1] and 1 µM with MIA PaCa-2 (human).
